# Measured values taken from patent publication US20230293518A1 (Edgewise Therapeutics, Inc., priority 2020, published 2023).
# Target: skeletal myofibrils (myosin ATPase)
# Assay: Skeletal Myofibril ATPase Assay
# Format: biochemical
# Description: Example 12. Skeletal Myofibril ATPase Assay
# Overview: Myosin ATPase activity is assessed by using a coupled reaction system, in which ADP generated by the myosin ATPase function is coupled to the disappearance of NADH through the pyruvate kinase/lactate dehydrogenase (PK-LDH) system. ATPase activity produces ADP, which is used as a substrate for PK to produce pyruvate and regenerate ATP. The pyruvate is then used as a substrate by LDH to oxidize NADH to NAD+. The rate of the reaction is monitored through the time-dependent disappearance of NADH using absorbance at 340 nm. Inhibition of ATPase activity by the assayed compounds is indicated by a reduced rate of NADH loss, relative to vehicle-treated controls, over the experimental time window. To assess the selectivity of the assayed compounds for skeletal myofibrils, the compounds are counter-screened in cardiac myofibrils.
# Materials: The following stock solutions and reagents were used in the Skeletal Myofibril ATPase Assay:
# Stock Solutions of pCa buffer. Combine PIPES, CaCl2, and EGTA solutions with 70 mL of water. Adjust pH to 7.0 and bring final volume to 100 mL.
# Buffer A & Buffer B. Buffers were stored on ice until use.
# Skeletal Myofibril ATPase Assay Procedure: BSA, ATP, NADH, PEP, and DTT solutions were thawed at room temperature, then transferred to ice. Pellet-frozen myofibrils were transferred with approximately twice the required volume into a sufficiently large tube and capped. Myofibrils were thawed by rolling in a water bath for approximately 15 min at room temperature and cooled on ice. Buffers A and B were prepared by adjusting volumes as necessary for required number of wells and stored on ice. 0.5 μL of the compounds to be assayed were added into wells. 25 μL of Buffer A was dispensed into the wells, followed by 25 μL of Buffer B. The wells were measured for absorbance at 340 nm, using a kinetic protocol in which the wells are read every 1.5-2 min for 45 min. The slope of the data was approximated by subtracting the minimum absorbance value from the maximum value for each well. This was accomplished either in the SoftMax Pro software or in a spreadsheet program such as Excel. Using GraphPad Prism 8.0, the data was normalized by assigning a value of 100% to the 1% DMSO vehicle wells. Typically, a normalized 0% value was simply assigned to a (Max−Min) value of 0. The normalized data was fit to a Four Parameter Logistic sigmoidal equation, constraining the bottom to be 0 or greater. Compounds of Table 1, 2, and 3 were tested and results of the assay appear in Tables 4a-4c. A=IC50 is less than or equal to 10 μM; B═IC50 is greater than 10 μM and less than 100 μM; C═IC50 is greater than 100 μM.
SMILES,IC50 (Table 4C),IC50 (Table 4A)
COc1ccc(-c2ccc(=O)n(CC(=O)NCc3cc(Cl)ccc3Cl)n2)cc1,< 10 µM,–
"CC(C)[C@@](C)(C#N)NC(=O)Cn1nc(-c2ccc(OC(F)F)nc2)ccc1=O (stereo in doubt) [Compound I-34, N-(2-cyano-3-methylbutan-2-yl)-2-(3-(6-(difluoromethoxy)pyridin-3-yl)-6-oxopyridazin-1(6H)-yl)acetamide]",–,10 to 100 µM
"CCNC(=O)Cn1nc(-c2cnc(Nc3ccc(Cl)cc3)nc2)ccc1=O [Compound I-1, 2-(3-(2-((4-chlorophenyl)amino)pyrimidin-5-yl)-6-oxopyridazin-1(6H)-yl)-N-ethylacetamide]",–,< 10 µM
"CCNC(=O)Cn1nc(-c2cnc(Nc3ccc(F)cc3)nc2)ccc1=O [Compound I-2, N-ethyl-2-(3-(2-((4-fluorophenyl)amino)pyrimidin-5-yl)-6-oxopyridazin-1(6H)-yl)acetamide]",–,< 10 µM
"O=C(Cn1nc(-c2ccc(OC(F)F)nc2)ccc1=O)NC1CCC1 [Compound I-4, N-cyclobutyl-2-(3-(6-(difluoromethoxy)pyridin-3-yl)-6-oxopyridazin-1(6H)-yl)acetamide]",–,< 10 µM
"COc1ccc(-c2ccc(=O)n(CC(=O)NCc3ccccc3Cl)n2)cn1 [Compound I-5, N-(2-chlorobenzyl)-2-(3-(6-methoxypyridin-3-yl)-6-oxopyridazin-1(6H)-yl)acetamide]",–,< 10 µM
"CCNC(=O)Cn1nc(-c2ccc(N3CC(F)(F)C3)nc2)ccc1=O [Compound I-6, 2-(3-(6-(3,3-difluoroazetidin-1-yl)pyridin-3-yl)-6-oxopyridazin-1(6H)-yl)-N-ethylacetamide]",–,10 to 100 µM
"CCNC(=O)Cn1nc(-c2ccc(OC(F)F)nc2)ccc1=O [Compound I-7, 2-[3-[6-(difluoromethoxy)pyridin-3-yl]-6-oxo-1,6-dihydropyridazin-1-yl]-N-ethylacetamide]",–,< 10 µM
"CCNC(=O)Cn1nc(-c2cnc(OCC(F)(F)F)nc2)ccc1=O [Compound I-8, N-ethyl-2-(6-oxo-3-(2-(2,2,2-trifluoroethoxy)pyrimidin-5-yl)pyridazin-1(6H)-yl)acetamide]",–,< 10 µM
"CCNC(=O)Cn1nc(-c2ccc(OCCC(F)(F)F)nc2)ccc1=O [Compound I-10, N-ethyl-2-[6-oxo-3-[6-(3,3,3-trifluoropropoxy)pyridin-3-yl]-1,6-dihydropyridazin-1-yl]acetamide]",–,10 to 100 µM
"O=C(Cn1nc(-c2ccc(OC(F)F)nc2)ccc1=O)NC12CC(C1)C2 [Compound I-11, N-(bicyclo[1.1.1]pentan-1-yl)-2-(3-(6-(difluoromethoxy)pyridin-3-yl)-6-oxopyridazin-1(6H)-yl)acetamide]",–,10 to 100 µM
"CCNC(=O)Cn1nc(-c2ccc(C3CC3)nc2)ccc1=O [Compound I-12, 2-(3-(6-cyclopropylpyridin-3-yl)-6-oxopyridazin-1(6H)-yl)-N-ethylacetamide]",–,10 to 100 µM
"CCNC(=O)Cn1nc(-c2ccc(OCC(F)(F)F)nc2)ccc1=O [Compound I-13, N-ethyl-2-(6-oxo-3-(6-(2,2,2-trifluoroethoxy)pyridin-3-yl)pyridazin-1(6H)-yl)acetamide]",–,10 to 100 µM
"CCNC(=O)Cn1nc(-c2ccc(OC(F)(F)F)nc2)ccc1=O [Compound I-14, N-ethyl-2-(6-oxo-3-(6-(trifluoromethoxy)pyridin-3-yl)pyridazin-1(6H)-yl)acetamide]",–,10 to 100 µM
"CC1(NC(=O)Cn2nc(-c3ccc(OC(F)F)nc3)ccc2=O)CCC1 [Compound I-15, 2-(3-(6-(difluoromethoxy)pyridin-3-yl)-6-oxopyridazin-1(6H)-yl)-N-(1-methylcyclobutyl) acetamide]",–,10 to 100 µM
"COc1ccc(-c2ccc(=O)n(CC(=O)NC(C)C)n2)cn1 [Compound I-16, N-isopropyl-2-(3-(6-methoxypyridin-3-yl)-6-oxopyridazin-1(6H)-yl)acetamide]",–,10 to 100 µM
"O=C(Cn1nc(-c2ccc(OC(F)F)nc2)ccc1=O)N[C@H]1CC12CC2 [Compound I-17, (S)-2-(3-(6-(difluoromethoxy)pyridin-3-yl)-6-oxopyridazin-1(6H)-yl)-N-(spiro[2.2]pentan-1-yl)acetamide]",–,10 to 100 µM

SMILES,IC50 (Table 4C),IC50 (Table 4A)
"CCNC(=O)Cn1nc(-c2ccc(N3CC(C)(C)C3)nc2)ccc1=O [Compound I-18, 2-(3-(6-(3,3-dimethylazetidin-1-yl)pyridin-3-yl)-6-oxopyridazin-1(6H)-yl)-N-ethylacetamide]",–,10 to 100 µM
"CCNC(=O)Cn1nc(-c2ccc(N3CCC34COC4)nc2)ccc1=O [Compound I-19, 2-(3-(6-(6-oxa-1-azaspiro[3.3]heptan-1-yl)pyridin-3-yl)-6-oxopyridazin-1(6H)-yl)-N-ethylacetamide]",–,10 to 100 µM
"CCC(C)(C)NC(=O)Cn1nc(-c2ccc(OC(F)F)nc2)ccc1=O [Compound I-20, 2-(3-(6-(difluoromethoxy)pyridin-3-yl)-6-oxopyridazin-1(6H)-yl)-N-(tert-pentyl)acetamide]",–,10 to 100 µM
"CCNC(=O)Cn1nc(-c2ccc(Oc3ccc(F)cc3)nc2)ccc1=O [Compound I-21, N-ethyl-2-(3-(6-(4-fluorophenoxy)pyridin-3-yl)-6-oxopyridazin-1(6H)-yl)acetamide]",–,10 to 100 µM
"CCNC(=O)Cn1nc(-c2ccc(OCC3COC3)nc2)ccc1=O [Compound I-22, N-ethyl-2-(3-(6-(oxetan-3-ylmethoxy)pyridin-3-yl)-6-oxopyridazin-1(6H)-yl)acetamide]",–,10 to 100 µM
"CCNC(=O)Cn1nc(-c2ccc(OCC3(F)COC3)nc2)ccc1=O [Compound I-23, N-ethyl-2-(3-(6-((3-fluorooxetan-3-yl)methoxy)pyridin-3-yl)-6-oxopyridazin-1(6H)-yl)acetamide]",–,10 to 100 µM
"CCNC(=O)Cn1nc(-c2ccc(OCC3(C)COC3)nc2)ccc1=O [Compound I-24, N-ethyl-2-(3-(6-((3-methyloxetan-3-yl)methoxy)pyridin-3-yl)-6-oxopyridazin-1(6H)-yl)acetamide]",–,10 to 100 µM
"CCNC(=O)Cn1nc(-c2ccc(OC3COC3)nc2)ccc1=O [Compound I-25, N-ethyl-2-(3-(6-(oxetan-3-yloxy)pyridin-3-yl)-6-oxopyridazin-1(6H)-yl)acetamide]",–,> 100 µM
"CCNC(=O)Cn1nc(-c2ccc(OCCN(C)C)nc2)ccc1=O [Compound I-26, 2-(3-(6-(2-(dimethylamino)ethoxy)pyridin-3-yl)-6-oxopyridazin-1(6H)-yl)-N-ethylacetamide]",–,> 100 µM
"CCNC(=O)Cn1nc(-c2ccc(OC(C)C)nc2)ccc1=O [Compound I-27, N-ethyl-2-(3-(6-isopropoxypyridin-3-yl)-6-oxopyridazin-1(6H)-yl)acetamide]",–,> 100 µM
"CCNC(=O)Cn1nc(-c2ccc(OCCCN(C)C)nc2)ccc1=O [Compound I-28, 2-(3-(6-(3-(dimethylamino)propoxy)pyridin-3-yl)-6-oxopyridazin-1(6H)-yl)-N-ethylacetamide]",–,> 100 µM
"C[C@H](NC(=O)Cn1nc(-c2ccc(OC(F)F)nc2)ccc1=O)c1ccnn1C [Compound I-29, (S)-2-(3-(6-(difluoromethoxy)pyridin-3-yl)-6-oxopyridazin-1(6H)-yl)-N-(1-(1-methyl-1H-pyrazol-5-yl)ethyl)acetamide]",–,> 100 µM
"Cn1nccc1CNC(=O)Cn1nc(-c2ccc(OC(F)F)nc2)ccc1=O [Compound I-30, 2-(3-(6-(difluoromethoxy)pyridin-3-yl)-6-oxopyridazin-1(6H)-yl)-N-((1-methyl-1H-pyrazol-5-yl)methyl)acetamide]",–,> 100 µM
"CCNC(=O)Cn1nc(-c2ccc(N3CC4(COC4)C3)nc2)ccc1=O [Compound I-31, 2-(3-(6-(2-oxa-6-azaspiro[3.3]heptan-6-yl)pyridin-3-yl)-6-oxopyridazin-1(6H)-yl)-N-ethylacetamide]",–,> 100 µM
"CCNC(=O)Cn1nc(-c2ccc(N3CC4(C3)CS(=O)(=O)C4)nc2)ccc1=O [Compound I-32, 2-(3-(6-(2,2-dioxido-2-thia-6-azaspiro[3.3]heptan-6-yl)pyridin-3-yl)-6-oxopyridazin-1(6H)-yl)-N-ethylacetamide]",–,> 100 µM
"O=C(Cn1nc(-c2ccc(OC(F)F)nc2)ccc1=O)NC1CC(F)(F)C1 [Compound I-33, N-(3,3-difluorocyclobutyl)-2-(3-(6-(difluoromethoxy)pyridin-3-yl)-6-oxopyridazin-1(6H)-yl)acetamide]",–,> 100 µM
"CC(C)(C#N)NC(=O)Cn1nc(-c2ccc(OC(F)F)nc2)ccc1=O [Compound I-35, N-(2-cyanopropan-2-yl)-2-(3-(6-(difluoromethoxy)pyridin-3-yl)-6-oxopyridazin-1(6H)-yl)acetamide]",–,10 to 100 µM
